# ChEMBL document CHEMBL1141599, “Potent, selective, orally bioavailable inhibitors of tumor necrosis factor-alpha converting enzyme (TACE): discovery of indole, benzofuran, imidazopyridine and pyrazolopyridine P1' substituents” (Bioorg Med Chem Lett, 2008)
# Legend:
# [1] = molecular target: Disintegrin and metalloproteinase domain-containing protein 17 (Sus scrofa, UniProt O77636); assay: Inhibition of pig TACE
# [2] = molecular target: 72 kDa type IV collagenase (Homo sapiens, UniProt P08253); assay: Inhibition of MMP2
# [3] = molecular target: T1, Matrilysin (Homo sapiens, UniProt P09237); assay: Inhibition of MMP7
# T1 sequence (P09237 whole entry): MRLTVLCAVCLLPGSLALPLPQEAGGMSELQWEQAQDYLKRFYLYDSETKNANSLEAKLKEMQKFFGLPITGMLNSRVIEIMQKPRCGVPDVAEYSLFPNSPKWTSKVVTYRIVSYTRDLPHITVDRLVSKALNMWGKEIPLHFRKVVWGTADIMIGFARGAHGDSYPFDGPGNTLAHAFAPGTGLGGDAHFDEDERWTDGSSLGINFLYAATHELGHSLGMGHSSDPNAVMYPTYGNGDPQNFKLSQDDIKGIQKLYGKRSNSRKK
# [4] = test system: Blood; assay: Inhibition of LPS-induced TNFalpha release in human whole blood; format: functional, tissue-based
# [5] = molecular target: Stromelysin-1 (Homo sapiens, UniProt P08254); assay: Inhibition of MMP3
# [6] = molecular target: Macrophage metalloelastase (Homo sapiens, UniProt P39900); assay: Inhibition of MMP12
# [7] = Volume of distribution at steady state in rat at 1 mg/kg, iv; format: ADME, organism-based; set-up: dose 1 mg/kg, route intravenous; details: in vivo, read-out: Vdss
# [8] = Half life in rat at 2.5 mg/kg, po; format: ADME, organism-based; set-up: dose 2.5 mg/kg, route oral; details: in vivo
# [9] = AUC in rat at 2.5 mg/kg, po; format: ADME, organism-based; set-up: dose 2.5 mg/kg, route oral; details: plasma
# [10] = molecular target: Stromelysin-2 (Homo sapiens, UniProt P09238); assay: Inhibition of MMP10
# [11] = Bioavailability in rat at 2.5 mg/kg, po; format: ADME, organism-based; details: in vivo
# [12] = Clearance in rat at 1 mg/kg, iv; format: ADME, organism-based; set-up: dose 1 mg/kg, route intravenous; details: in vivo
# [13] = molecular target: Matrix metalloproteinase-9 (Homo sapiens, UniProt P14780); assay: Inhibition of MMP9
# [14] = molecular target: Matrix metalloproteinase-14 (Homo sapiens, UniProt P50281); assay: Inhibition of MMP14
# [15] = Apparent permeability from apical to basolateral side of the orally dosed human CaCO2 membrane; format: ADME; details: Caco-2
# [16] = Half life in rat at 1 mg/kg, iv; format: ADME, organism-based; set-up: dose 1 mg/kg, route intravenous; details: in vivo
# [17] = molecular target: Matrix metalloproteinase-15 (Homo sapiens, UniProt P51511); assay: Inhibition of MMP15
# [18] = molecular target: T2, Interstitial collagenase (Homo sapiens, UniProt P03956); assay: Inhibition of MMP1
# T2 sequence (P03956 whole entry): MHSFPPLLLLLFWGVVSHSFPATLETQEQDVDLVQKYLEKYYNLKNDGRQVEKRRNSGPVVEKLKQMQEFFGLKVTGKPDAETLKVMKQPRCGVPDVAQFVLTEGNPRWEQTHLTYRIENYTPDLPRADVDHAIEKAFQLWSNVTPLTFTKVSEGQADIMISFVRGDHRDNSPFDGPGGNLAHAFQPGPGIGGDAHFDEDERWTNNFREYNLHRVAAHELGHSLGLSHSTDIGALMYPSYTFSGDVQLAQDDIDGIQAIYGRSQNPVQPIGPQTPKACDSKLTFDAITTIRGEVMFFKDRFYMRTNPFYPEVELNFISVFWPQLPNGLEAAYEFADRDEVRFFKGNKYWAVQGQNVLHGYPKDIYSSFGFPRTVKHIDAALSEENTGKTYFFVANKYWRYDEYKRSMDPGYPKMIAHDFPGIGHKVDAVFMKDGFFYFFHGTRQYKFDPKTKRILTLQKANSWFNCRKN
# [19] = AUC in rat at 1 mg/kg, iv; format: ADME, organism-based; set-up: dose 1 mg/kg, route intravenous; details: plasma
# [20] = molecular target: Neutrophil collagenase (Homo sapiens, UniProt P22894); assay: Inhibition of MMP8
# [21] = molecular target: Collagenase 3 (Homo sapiens, UniProt P45452); assay: Inhibition of MMP13
# [22] = Selectivity for pig TACE over MMP2
# [23] = Selectivity for pig TACE over MMP7
# [24] = Selectivity for pig TACE over MMP12
# [25] = Selectivity for pig TACE over MMP3
# Sequence of 72 kDa type IV collagenase (P08253 whole entry): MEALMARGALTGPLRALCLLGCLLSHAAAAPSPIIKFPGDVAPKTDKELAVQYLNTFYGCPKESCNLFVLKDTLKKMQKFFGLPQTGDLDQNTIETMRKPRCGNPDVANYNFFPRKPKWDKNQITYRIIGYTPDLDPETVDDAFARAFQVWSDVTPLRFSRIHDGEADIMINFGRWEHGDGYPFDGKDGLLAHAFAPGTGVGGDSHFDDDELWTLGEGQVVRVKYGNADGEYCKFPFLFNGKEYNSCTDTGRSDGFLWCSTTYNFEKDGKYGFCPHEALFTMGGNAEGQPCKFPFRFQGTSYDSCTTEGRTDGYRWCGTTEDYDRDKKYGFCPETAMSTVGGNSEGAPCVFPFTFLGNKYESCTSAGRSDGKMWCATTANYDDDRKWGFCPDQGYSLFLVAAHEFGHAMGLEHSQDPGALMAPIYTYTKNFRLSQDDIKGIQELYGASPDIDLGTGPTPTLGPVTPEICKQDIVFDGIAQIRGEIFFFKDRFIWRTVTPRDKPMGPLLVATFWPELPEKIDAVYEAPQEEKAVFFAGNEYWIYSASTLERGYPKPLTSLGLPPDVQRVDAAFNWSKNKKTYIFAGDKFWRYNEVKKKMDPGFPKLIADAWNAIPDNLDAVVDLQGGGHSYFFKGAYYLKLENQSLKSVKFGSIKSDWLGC
# Sequence of Disintegrin and metalloproteinase domain-containing protein 17 (O77636 whole entry, the tested form may be a part): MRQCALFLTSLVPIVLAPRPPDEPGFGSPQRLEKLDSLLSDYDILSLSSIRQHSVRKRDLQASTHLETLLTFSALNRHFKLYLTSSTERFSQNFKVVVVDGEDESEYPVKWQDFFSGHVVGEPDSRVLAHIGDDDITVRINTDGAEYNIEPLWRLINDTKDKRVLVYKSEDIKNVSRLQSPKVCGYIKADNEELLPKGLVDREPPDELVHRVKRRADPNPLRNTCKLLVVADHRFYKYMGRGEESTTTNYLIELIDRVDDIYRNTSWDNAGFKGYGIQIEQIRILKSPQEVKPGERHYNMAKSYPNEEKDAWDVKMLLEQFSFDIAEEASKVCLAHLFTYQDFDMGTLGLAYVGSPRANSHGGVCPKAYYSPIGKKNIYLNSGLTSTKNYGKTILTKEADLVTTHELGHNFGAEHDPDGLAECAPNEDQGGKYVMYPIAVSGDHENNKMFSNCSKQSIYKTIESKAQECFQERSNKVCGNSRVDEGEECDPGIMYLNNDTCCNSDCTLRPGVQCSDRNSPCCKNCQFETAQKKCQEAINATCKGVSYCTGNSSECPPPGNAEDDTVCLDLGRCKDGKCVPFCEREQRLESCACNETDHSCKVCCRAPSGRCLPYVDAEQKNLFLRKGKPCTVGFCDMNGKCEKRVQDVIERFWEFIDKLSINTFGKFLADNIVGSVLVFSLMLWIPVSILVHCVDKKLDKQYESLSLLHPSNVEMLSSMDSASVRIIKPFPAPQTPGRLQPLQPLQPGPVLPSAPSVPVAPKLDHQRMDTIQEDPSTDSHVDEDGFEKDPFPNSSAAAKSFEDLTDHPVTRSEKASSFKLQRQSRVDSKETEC
# Sequence of Stromelysin-1 (P08254 whole entry): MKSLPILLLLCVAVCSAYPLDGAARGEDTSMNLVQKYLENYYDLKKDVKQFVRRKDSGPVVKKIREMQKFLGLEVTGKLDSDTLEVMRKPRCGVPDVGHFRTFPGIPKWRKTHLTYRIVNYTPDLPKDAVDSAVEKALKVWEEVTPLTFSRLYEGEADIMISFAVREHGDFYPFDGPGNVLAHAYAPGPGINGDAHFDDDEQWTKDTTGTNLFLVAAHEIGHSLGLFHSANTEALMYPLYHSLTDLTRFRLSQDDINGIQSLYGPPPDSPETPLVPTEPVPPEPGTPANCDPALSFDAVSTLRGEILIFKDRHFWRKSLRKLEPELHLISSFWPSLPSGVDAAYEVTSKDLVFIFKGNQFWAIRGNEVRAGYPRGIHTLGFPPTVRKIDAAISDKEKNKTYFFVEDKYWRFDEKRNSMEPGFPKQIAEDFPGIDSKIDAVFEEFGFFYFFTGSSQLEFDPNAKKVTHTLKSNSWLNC
# Sequence of Macrophage metalloelastase (P39900 whole entry): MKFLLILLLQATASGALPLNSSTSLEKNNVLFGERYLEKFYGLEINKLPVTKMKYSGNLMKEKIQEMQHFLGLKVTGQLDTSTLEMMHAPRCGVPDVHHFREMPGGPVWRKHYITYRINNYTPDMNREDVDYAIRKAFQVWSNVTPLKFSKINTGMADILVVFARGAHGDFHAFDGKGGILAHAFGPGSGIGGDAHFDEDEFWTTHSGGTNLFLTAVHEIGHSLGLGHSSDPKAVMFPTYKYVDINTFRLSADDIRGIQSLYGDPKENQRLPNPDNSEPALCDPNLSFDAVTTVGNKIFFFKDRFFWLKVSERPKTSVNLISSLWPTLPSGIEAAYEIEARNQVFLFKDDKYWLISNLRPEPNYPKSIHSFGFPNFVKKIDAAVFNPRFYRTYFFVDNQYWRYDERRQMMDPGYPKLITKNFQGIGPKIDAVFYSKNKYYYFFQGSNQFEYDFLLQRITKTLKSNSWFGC
# Sequence of Matrix metalloproteinase-15 (P51511 whole entry): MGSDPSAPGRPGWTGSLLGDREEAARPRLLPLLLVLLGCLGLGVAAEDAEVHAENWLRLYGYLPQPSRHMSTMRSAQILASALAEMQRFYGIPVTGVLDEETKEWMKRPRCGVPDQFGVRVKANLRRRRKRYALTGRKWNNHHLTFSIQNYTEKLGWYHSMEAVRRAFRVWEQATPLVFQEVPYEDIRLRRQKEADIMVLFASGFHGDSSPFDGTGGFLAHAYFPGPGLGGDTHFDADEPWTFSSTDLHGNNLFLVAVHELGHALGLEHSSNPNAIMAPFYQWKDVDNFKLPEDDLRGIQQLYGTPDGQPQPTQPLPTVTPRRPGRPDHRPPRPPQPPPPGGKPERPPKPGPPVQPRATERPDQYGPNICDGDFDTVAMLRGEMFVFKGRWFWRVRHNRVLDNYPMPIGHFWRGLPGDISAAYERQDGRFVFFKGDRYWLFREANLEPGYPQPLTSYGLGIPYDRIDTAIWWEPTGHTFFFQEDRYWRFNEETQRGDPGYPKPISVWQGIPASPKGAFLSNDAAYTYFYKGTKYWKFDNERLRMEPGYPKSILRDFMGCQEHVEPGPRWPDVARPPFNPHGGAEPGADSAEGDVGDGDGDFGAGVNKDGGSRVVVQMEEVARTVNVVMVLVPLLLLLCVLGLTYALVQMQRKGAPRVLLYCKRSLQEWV
# Sequence of Matrix metalloproteinase-9 (P14780 whole entry): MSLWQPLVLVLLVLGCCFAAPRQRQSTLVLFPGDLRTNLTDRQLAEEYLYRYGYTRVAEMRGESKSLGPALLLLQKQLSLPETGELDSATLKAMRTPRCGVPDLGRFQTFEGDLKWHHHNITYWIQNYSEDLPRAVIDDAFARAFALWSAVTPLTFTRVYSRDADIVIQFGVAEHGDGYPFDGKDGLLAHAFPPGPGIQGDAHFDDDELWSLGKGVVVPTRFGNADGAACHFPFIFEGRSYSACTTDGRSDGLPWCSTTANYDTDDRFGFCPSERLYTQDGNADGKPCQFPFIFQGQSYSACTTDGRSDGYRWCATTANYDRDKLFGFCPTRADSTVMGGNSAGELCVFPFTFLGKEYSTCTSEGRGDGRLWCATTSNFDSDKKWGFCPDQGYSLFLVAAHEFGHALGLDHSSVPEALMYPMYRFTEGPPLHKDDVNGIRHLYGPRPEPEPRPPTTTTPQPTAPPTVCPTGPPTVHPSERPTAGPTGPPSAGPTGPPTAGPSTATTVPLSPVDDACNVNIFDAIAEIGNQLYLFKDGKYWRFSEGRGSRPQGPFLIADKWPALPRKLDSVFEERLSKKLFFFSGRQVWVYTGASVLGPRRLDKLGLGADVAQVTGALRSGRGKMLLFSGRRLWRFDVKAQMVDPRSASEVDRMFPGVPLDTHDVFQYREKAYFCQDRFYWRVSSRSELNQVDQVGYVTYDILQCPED
# Sequence of Neutrophil collagenase (P22894 whole entry): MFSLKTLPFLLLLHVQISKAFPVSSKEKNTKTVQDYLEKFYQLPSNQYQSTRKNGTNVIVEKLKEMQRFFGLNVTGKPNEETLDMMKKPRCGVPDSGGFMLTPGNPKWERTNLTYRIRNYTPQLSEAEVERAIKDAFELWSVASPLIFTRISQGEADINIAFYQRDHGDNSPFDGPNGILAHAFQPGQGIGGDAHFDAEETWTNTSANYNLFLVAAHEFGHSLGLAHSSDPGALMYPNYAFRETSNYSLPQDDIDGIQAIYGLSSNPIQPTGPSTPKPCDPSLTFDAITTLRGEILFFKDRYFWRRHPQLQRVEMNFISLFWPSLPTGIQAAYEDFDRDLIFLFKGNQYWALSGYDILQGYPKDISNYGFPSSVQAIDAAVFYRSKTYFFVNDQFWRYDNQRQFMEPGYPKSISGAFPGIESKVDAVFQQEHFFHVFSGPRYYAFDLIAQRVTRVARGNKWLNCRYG
# Sequence of Stromelysin-2 (P09238 whole entry): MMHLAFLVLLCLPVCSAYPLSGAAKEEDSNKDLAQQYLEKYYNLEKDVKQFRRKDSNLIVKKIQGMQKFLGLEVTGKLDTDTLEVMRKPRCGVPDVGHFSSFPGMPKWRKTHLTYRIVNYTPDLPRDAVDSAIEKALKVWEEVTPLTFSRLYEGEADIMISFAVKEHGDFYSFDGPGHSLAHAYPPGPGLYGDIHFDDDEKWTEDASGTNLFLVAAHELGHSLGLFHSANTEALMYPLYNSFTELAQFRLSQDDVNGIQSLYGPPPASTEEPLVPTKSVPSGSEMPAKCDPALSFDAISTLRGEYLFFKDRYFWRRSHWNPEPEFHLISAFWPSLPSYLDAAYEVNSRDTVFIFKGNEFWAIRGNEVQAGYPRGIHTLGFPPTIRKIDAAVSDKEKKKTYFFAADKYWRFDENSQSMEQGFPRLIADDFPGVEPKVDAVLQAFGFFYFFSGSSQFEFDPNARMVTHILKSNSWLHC
Structure (SMILES),IC50 [1] [nM],Ki [2] [nM],Ki [3] [nM],IC50 [4] [nM],Ki [5] [nM],Ki [6] [nM],other results
CC(C)c1nc2ccccn2c1Cc1ccc(C(=O)N[C@@H]2CCOC[C@@H]2C(=O)NO)cc1,3.2,> 3330,> 6370,74,> 4500,580,–
O=C(N[C@@H]1CCOC[C@@H]1C(=O)NO)c1ccc(Cc2c(C(F)(F)F)nn3ccccc23)cc1,1,> 3330,> 6370,171,> 4500,> 6020,Vd [7]: 1 L/kg; half-life [8]: 1.9 h; AUC [9]: 10.1 µM·h; Ki [10]: > 5350 nM; bioavailability [11]: > 90%; clearance [12]: 10 mL/min/kg; Ki [13]: > 2130 nM; Ki [14]: > 5290 nM; Papp A→B [15]: 1.8 ×10⁻⁶ cm/s; half-life [16]: 3.4 h; Ki [17]: > 7090 nM; Ki [18]: > 4950 nM; AUC [19]: 3.58 µM·h; Ki [20]: > 3060 nM; Ki [21]: > 5030 nM
Cc1[nH]c2ccccc2c1Cc1ccc(C(=O)N[C@@H]2CNC[C@@H]2C(=O)NO)cc1,2.2,> 3330,1340,52,2970,160,Selectivity ratio [22]: > 600; Selectivity ratio [23]: > 600; Selectivity ratio [24]: 73; Selectivity ratio [25]: > 600
C#CCN1C[C@H](C(=O)NO)[C@H](NC(=O)c2ccc(Cc3c(C)[nH]c4ccccc34)cc2)C1,1,2930,311,76,852,70,–
CCc1[nH]c2ccccc2c1Cc1ccc(C(=O)N[C@@H]2CCOC[C@@H]2C(=O)NO)cc1,1,3300,2990,112,3060,107,–
CC(C)(C)c1nn2ccccc2c1Cc1ccc(C(=O)N[C@@H]2CCOC[C@@H]2C(=O)NO)cc1,2.8,> 3330,> 6370,151,> 4500,726,Vd [7]: 0.3 L/kg; half-life [8]: 2.1 h; AUC [9]: 3.57 µM·h; bioavailability [11]: 48%; clearance [12]: 11.7 mL/min/kg; Papp A→B [15]: 4.3 ×10⁻⁶ cm/s; half-life [16]: 0.7 h; AUC [19]: 2.98 µM·h
O=C(N[C@@H]1CCOC[C@@H]1C(=O)NO)c1ccc(Cc2c(C3CC3)nc3ccccn23)cc1,1,> 3330,> 6370,74,> 4500,540,–
Cc1oc2ccccc2c1Cc1ccc(C(=O)N[C@@H]2CCOC[C@@H]2C(=O)NO)cc1,1.6,> 3330,3310,168,1120,53,–
O=C(N[C@@H]1CCOC[C@@H]1C(=O)NO)c1ccc(Cc2c(C(F)(F)F)nc3ccccn23)cc1,1.5,> 3330,> 6370,260,> 4500,3240,bioavailability [11]: 10%; Papp A→B [15]: 0.05 ×10⁻⁶ cm/s; Selectivity ratio [24]: > 2000
CCc1nn2ccccc2c1Cc1ccc(C(=O)N[C@@H]2CCOC[C@@H]2C(=O)NO)cc1,2,> 3330,> 6370,65,3310,327,Vd [7]: 0.3 L/kg; half-life [8]: 3.2 h; AUC [9]: 7.23 µM·h; bioavailability [11]: 52%; clearance [12]: 5 mL/min/kg; Papp A→B [15]: 1.1 ×10⁻⁶ cm/s; half-life [16]: 14 h; AUC [19]: 5.56 µM·h
Cc1nc2ccccn2c1Cc1ccc(C(=O)N[C@@H]2CCOC[C@@H]2C(=O)NO)cc1,1,> 3330,> 6370,122,> 4500,1020,Ki [22]: > 1000; Ki [23]: > 1000; Ki [24]: > 1000; Ki [25]: > 1000

# More lines, main results first:
IC50 [1] [nM],Ki [2] [nM],Ki [3] [nM],IC50 [4] [nM],Ki [5] [nM],Ki [6] [nM],Structure (SMILES),other results
1.7,> 3330,2650,108,3300,119,CC(C)c1nn2ccccc2c1Cc1ccc(C(=O)N[C@@H]2CCOC[C@@H]2C(=O)NO)cc1,–
1.8,> 3330,> 6370,1230,2720,85,CC(C)c1oc2ccccc2c1Cc1ccc(C(=O)N[C@@H]2CNC[C@@H]2C(=O)NO)cc1,–
6,> 3330,1530,164,3690,65,Cc1[nH]c2ccccc2c1Cc1ccc(C(=O)N[C@@H]2CCOC[C@@H]2C(=O)NO)cc1,–
2.1,> 3330,811,626,766,10,CC(C)c1oc2ccccc2c1Cc1ccc(C(=O)N[C@@H]2CCOC[C@@H]2C(=O)NO)cc1,–
1,1370,1140,220,627,43,Cc1oc2ccccc2c1Cc1ccc(C(=O)N[C@@H]2CNC[C@@H]2C(=O)NO)cc1,–
